One compound from PMC6394990, “Detailed characterization of the solution kinetics and thermodynamics of biotin, biocytin and HABA binding to avidin and streptavidin” (PLoS ONE, 2019) can be followed below.

This assay deals with T1, avidin (AV) (Gallus gallus, UniProt P02701).
T1 construct: purchased Calbiochem (La Jolla, CA)
Nature of the assay: Stopped-flow association kinetics of dye-labeled biotin probes binding to avidin (F(t), rF(t); Arrhenius plots/global fitting). As for the experimental part: These reactions were carried out in a buffered solution of 10 mM Tris-HCl, 100 mM KCl, 2.5 mM MgCl2 and 1 mM CaCl2 at pH 8 and only AV-BcO reactions included pH 9 and 10. The concentrations, after mixing, were of 20 nM of dye-labeled B7 probe and 260 nM, 520 nM or 1040 nM of AV; and 200 nM, 300 nM, 400 nM or 800 nM of SAV at temperatures of 10, 15, 20 and 25°C. The deglycosylation of AV (for comparative association reactions) was carried out using the provided standard protocol with endoglycosidase H [47], both with and without incubation of a denaturant solution (2% SDS and 1M 2-mercaptoethanol).
The reactions were collected with the SF instrument, described previously. The fluorescence signal was collected through a 520 nm interference filter (Oriel Corp., Stratford, CT) with a detector time constant and SF dead time of 1 μs and 1 ms, respectively. The excitation light was provided by the Coherent Ar^+ ion laser (described above) at 488 nm with […] of incident power on the reaction cuvette. The laser source was followed by the photo-elastic modulator described above with the axis oriented 45^o with respect to the electric vector of the incident light and with the half-wave modulation (50 kHz) set for 488 nm excitation. The demodulation circuitry following the photomultiplier provided a DC(t) and a rectified AC(t) which were converted to digital data by a high-speed digitizer (PCI-5122) from National Instruments (Austin, TX) with 14-bit resolution and 100 MHz bandwidth, through channels 0 and 1. The data acquisition was controlled by LabVIEW (Vr 8) software at a collection rate of 6120 data points/second and stored in spreadsheets. The AC(t) and DC(t) data were baseline corrected before obtaining the signal ratio (Eq 4) as a function of time (ρt).
The constant AGain is the instrumental amplitude gain and was evaluated by solving ρ(t) using the known steady state anisotropy (rss) of the complexes which is equivalent to the r(t) at t = ∞; and H, obtained from the equivalent grating factor (G) for the filters and photo multiplier tubes in the SF. For the probes used in here G was 0.82 and H = (1-G)/(1+G) = 0.099. Knowing Again and H, the AC(t) and DC(t) signals can be solved for r(t) and F(t) (Eqs 4 and 5) and the normalized fluorescence, F¯(t) , and corrected fluorescence anisotropy, rF¯(t), were obtained when F¯(0) and rF¯(0) were scaled to 1 at t = 0.
The F¯(t) (Eq 6) is equivalent to (I||) + 2 (I⊥) and proportional to quantum yield (QYi), molar absorptivity (εi) and to the formation or disappearance of the emitting species Xi(t); and rF¯(t) including the steady state anisotropies (rss) of each fluorescent species (Eq 7).
The possible reaction models were discriminated by the squared residuals of the observed and calculated association traces of both fluorescence and anisotropy fluorescence signals, F¯(t) and rF¯(t) , respectively.

Where [1] appears, read: AV, average over the dye-labeled B7 probes, used for AV-B7.

The structures appear in SMILES notation. Several values for one entry are separate records, joined by “and”; a condition that tells them apart may be missing. Equal values may be shown once.

T1 sequence (P02701 25-152): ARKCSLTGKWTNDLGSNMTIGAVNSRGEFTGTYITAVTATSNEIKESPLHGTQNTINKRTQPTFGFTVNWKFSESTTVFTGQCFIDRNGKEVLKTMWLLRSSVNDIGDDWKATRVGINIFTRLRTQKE

As for `O=C(O)CCCC[C@@H]1SC[C@@H]2NC(=O)N[C@@H]21` [B7, d-biotin], for the setting “AV-B”, the “Eaon + (-∆H°)” value was 153 ± 5.44 kJ/mol, the “∆G°ǂ + (-∆G°)” value stood at 106 ± 4.18 kJ/mol and the “∆S°ǂ + (-∆S°)” value came to 41.9 ± 2.0 cal/mol°K. Under “AV-B7, column 3 minus 4”, the “ΔE = Ea^Forward-Ea^Backward” value was -97.1 ± 9.2 kJ/mol and -97.1 kJ/mol; the “ΔG° ^ǂ, Forward -ΔG° ^ǂ, Backward” value is -83.7 ± 16.7 kJ/mol; the “ΔS° ^ǂ, Forward -ΔS° ^ǂ, Backward” value is reported as -11.0 ± 2.5 cal/mol°K. The “fold slower than 10^9 M^-1s^-1 (diffusion limited)” value (AV, 25°C) is listed as 54-714 X. For the same compound, under setting [1], the “ΔG^ǂ, Forward” value is 19.7 ± 1.3 kJ/mol and 19.7 kJ/mol; the “ΔS^ǂ, Forward” value is 32 cal/°K·mol. For the same compound, the “ΔS^ǂ, Forward” value (AV, average over the dye-labeled B7 probes, used for AV-B7, listed as B) was 33.0 ± 2.0 cal/°K·mol.
